Results as given in patent US12679878B2, “CRF2 receptor agonists and their use in therapy” (SANOFI, priority 2020, dated 2026).
pEC50: −log10 of the molar value. Converted amounts (≈) assume the structure as drawn. Like-named read-outs stand apart in the source and are kept apart here. Starred links: 1 amine or outer side, 2 acyl side, 3 side chain; linkers in the order of their positions; H or OH if unused. Non-standard residues stand in square brackets, D forms with d. Residues, ends and D or L forms follow the SMILES beside them. Groups on a side chain read outwards from the residue. *: point of attachment. C20 diacid = O=C(O)CCCCCCCCCCCCCCCCCCC(=O)*; γGlu = O=C(O)[C@H](CCC(=O)[*:2])N[*:1]; AEEA = NCCOCCOCC(=O)O; Aib = CC(C)(N)C(=O)O

How the values were obtained:
rat CRF2R α receptor = assay: cAMP agonism at rat CRF2R α receptor in A7R5 rat aortic smooth muscle cells (Example 8); assay type: cell-based; conditions: cAMP HTRF, A7R5 rat aortic smooth muscle cell line, 0% HSA
Procedure, shortened: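 Thawed cryopreserved A7R5 cells in HBSS/20 mM HEPES (0 or 0.1% HSA) with 2 mM IBMX, 2000 cells/well, were exposed to compound for 30 min at room temperature. cAMP was read by HTRF (665/620 nm ratio) after 1 h with lysis reagents. Activity was normalised to 1000 nM urocortin 2 as 100%, and EC50 was taken as the concentration giving 50% of maximal activation.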

endogenous human CRF2 = target: T1, endogenous human CRF2 (Homo sapiens, UniProt Q13324); assay: cAMP agonist effect in NCI-H82 cells expressing endogenous human CRF2 (Example 10); assay type: cell-based; conditions: cAMP HTRF, 5 min activation
T1 construct: endogenous in cells; host or cells: NCI-H82
T1 sequence (Q13324 1-411): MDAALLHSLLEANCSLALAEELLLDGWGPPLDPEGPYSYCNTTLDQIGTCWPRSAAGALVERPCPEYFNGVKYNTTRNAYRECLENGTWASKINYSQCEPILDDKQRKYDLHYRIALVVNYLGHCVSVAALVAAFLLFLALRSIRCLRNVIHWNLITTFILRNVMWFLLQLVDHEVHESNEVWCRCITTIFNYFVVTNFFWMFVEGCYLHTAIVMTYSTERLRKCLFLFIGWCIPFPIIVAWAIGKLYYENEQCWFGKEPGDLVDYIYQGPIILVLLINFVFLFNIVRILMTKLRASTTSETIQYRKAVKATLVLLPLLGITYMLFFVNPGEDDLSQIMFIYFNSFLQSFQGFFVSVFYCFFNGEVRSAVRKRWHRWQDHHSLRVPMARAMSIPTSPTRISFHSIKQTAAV
Experimental: The agonist effect of the compounds was assessed in NCI-H82 cells expressing endogenous human CRF2.
NCI-H82 cells in suspension were plated in low-volume 384-well plates at a density of 30000 cells/well in 5 μl of test medium (RPMI+1 mM IBMX). The plates were briefly centrifuged at 800 rpm to allow the cell suspension to move to the bottom of the wells and then incubated for 2 hours at 37° C. in 5% CO2. 5 μl of test compounds at appropriate concentrations (10-11 to 3×10-7) diluted in test medium were then transferred in 384 wells plates. After 5 min of activation, the reaction was stopped by addition of HTRF revelation reagents with a multidrop dispenser. The two reagents were 5 μl/well of Anti-CAMP-cryptate diluted 20-fold in conjugate and lysis buffer and 5 μl/well of cAMP-D2 diluted 20-fold in conjugate and lysis buffer. After one-hour incubation at room temperature in the dark, the plates were read on a Clariostar apparatus.

[1] = Solubility in buffer systems by UPLC-UV (Example 13); assay type: physicochemical
Procedure, shortened: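 The supernatant was diluted 1:10 and quantified by UPLC-UV peak area against a reference standard curve, correcting for sequence-based extinction coefficients.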

CRF1R receptor = target: T2, CRF1R receptor (Homo sapiens, UniProt P34998); assay: cAMP activity at anti-target CRF1R, CRF1R-overexpression CHO cell line (Example 9); assay type: cell-based; conditions: CRF1R-overexpression CHO cell line
T2 construct: host or cells: CHO-K1 clone 2
T2 sequence (P34998 24-415): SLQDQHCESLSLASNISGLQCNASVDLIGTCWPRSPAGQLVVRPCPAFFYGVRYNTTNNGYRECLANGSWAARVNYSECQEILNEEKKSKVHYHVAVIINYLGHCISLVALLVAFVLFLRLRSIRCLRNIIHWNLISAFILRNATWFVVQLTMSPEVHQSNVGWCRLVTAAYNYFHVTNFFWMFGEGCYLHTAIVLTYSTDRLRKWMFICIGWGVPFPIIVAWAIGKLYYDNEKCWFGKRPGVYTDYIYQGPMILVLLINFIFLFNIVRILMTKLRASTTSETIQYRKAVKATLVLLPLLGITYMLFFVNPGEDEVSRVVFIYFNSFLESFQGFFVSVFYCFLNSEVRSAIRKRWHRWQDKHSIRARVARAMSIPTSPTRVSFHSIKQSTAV
Procedure, shortened: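 cAMP accumulation was read by HTRF after 30 min at room temperature of compound treatment. Cells were cryopreserved CHO cells overexpressing CRF1R, plated at 2000/well in IBMX (2 mM)-containing HBSS/HEPES buffer with 0 or 0.1% HSA. Activity was normalized to 1000 nM UCN2 as 100%.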

human CRF2α receptor = target: T3, human CRF2α receptor (Homo sapiens, UniProt Q13324); assay: cAMP agonism at human CRF2 α receptor in TeloHEAC cells (Example 7); assay type: cell-based; conditions: cAMP HTRF, TeloHEAC cells stably expressing human CRF2 α
T3 construct: expressed in transfected cells; host or cells: TeloHEAC
T3 sequence (Q13324 1-411): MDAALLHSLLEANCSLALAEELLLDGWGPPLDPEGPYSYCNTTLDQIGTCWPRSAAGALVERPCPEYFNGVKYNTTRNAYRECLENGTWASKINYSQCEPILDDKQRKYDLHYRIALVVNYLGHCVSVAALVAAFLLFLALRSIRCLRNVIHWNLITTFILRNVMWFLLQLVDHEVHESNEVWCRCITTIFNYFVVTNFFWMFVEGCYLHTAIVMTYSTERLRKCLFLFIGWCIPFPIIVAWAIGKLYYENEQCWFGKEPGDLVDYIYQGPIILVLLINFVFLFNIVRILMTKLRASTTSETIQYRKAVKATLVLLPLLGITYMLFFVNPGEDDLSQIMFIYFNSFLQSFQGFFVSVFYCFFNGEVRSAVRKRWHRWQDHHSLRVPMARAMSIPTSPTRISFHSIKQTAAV
Procedure, shortened: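 Thawed frozen stably transfected cells in HBSS/20 mM HEPES (0% or 0.1% HSA) plus 2 mM IBMX were exposed to compound at 2000 cells/well for 30 min at room temperature. Intracellular cAMP was read by HTRF (665/620 nm ratio) after 1 h lysis; EC50 was derived with 1000 nM urocortin 2 set as 100%.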

EC50 (rat CRF2R α receptor): 0.94 nM
pEC50 (endogenous human CRF2): 6.96
solubility at 1 h ([1]; pH 4.5, Solubility in Buffer B [mg/ml]): 20.4 mg/mL (≈ 3.97 mM)
solubility at 1 h ([1]; pH 7.4, Solubility in Buffer C [mg/ml]): > 9.6 mg/mL
EC50 (CRF1R receptor; 0% HSA): > 1000 nM
Emax (CRF1R receptor; read-out: Emax (%)): 23.3%
EC50 (human CRF2α receptor; 0% HSA, read-out: EC50 [nM], 0% HSA): 0.14 nM
EC50 (human CRF2α receptor; 0.1% HSA, read-out: EC50 [nM], 0.1% HSA): 18.5 nM
SMILES: CC[C@H](C)[C@H](N)C(=O)N[C@H](C(=O)N[C@@H](CC(C)C)C(=O)N[C@@H](CO)C(=O)N[C@@H](CC(C)C)C(=O)N[C@@H](CC(=O)O)C(=O)N[C@H](C(=O)N1CCC[C@H]1C(=O)N[C@H](C(=O)N[C@@H](CCCCN)C(=O)N[C@@H](CC(C)C)C(=O)N[C@@H](CCCCNC(=O)COCCOCCNC(=O)COCCOCCNC(=O)CC[C@H](NC(=O)CCCCCCCCCCCCCCCCCCC(=O)O)C(=O)O)C(=O)N[C@@H](CCC(N)=O)C(=O)N[C@H](C(=O)N[C@@H](CC(C)C)C(=O)N[C@@H](CC(C)C)C(=O)N[C@@H](CCC(=O)O)C(=O)N[C@@H](CCC(N)=O)C(=O)N[C@@H](CCC(=O)O)C(=O)N[C@@H](CCCCN)C(=O)N[C@@H](CCC(N)=O)C(=O)N[C@@H](CCCCN)C(=O)NC(C)(C)C(=O)N[C@@H](CCC(N)=O)C(=O)N[C@@H](CCCNC(=N)N)C(=O)N[C@@H](CCC(=O)O)C(=O)N[C@@H](CCC(N)=O)C(=O)N[C@@H](C)C(=O)N[C@@H](CCC(=O)O)C(=O)N[C@H](C(=O)N[C@@H](CC(N)=O)C(=O)N[C@@H](CCCCN)C(=O)N[C@@H](CCC(N)=O)C(=O)N[C@H](C(=O)N[C@@H](CC(C)C)C(=O)N[C@@H](C)C(=O)N[C@@H](CCC(N)=O)C(=O)N[C@H](C(N)=O)C(C)C)[C@@H](C)CC)[C@@H](C)O)[C@@H](C)CC)[C@@H](C)CC)C(C)C)C(C)C [compound 81] (H-IVLSLDVPIKLK([AEEA-AEEA-γGlu-C20 diacid])QILLEQEKQK[Aib]QREQAETNKQILAQV-NH2)
